pIC50: −log10 of the molar value.
Assays:
PPAR gamma = target: T1, PPAR gamma (Homo sapiens, UniProt P37231); assay: Target selectivity counterscreen, PPAR γ reporter assay; type: cell-based; details: receptor agonist at ~EC80
T1 construct: host or cells: engineered reporter cells of the kit
T1 sequence (P37231 1-505): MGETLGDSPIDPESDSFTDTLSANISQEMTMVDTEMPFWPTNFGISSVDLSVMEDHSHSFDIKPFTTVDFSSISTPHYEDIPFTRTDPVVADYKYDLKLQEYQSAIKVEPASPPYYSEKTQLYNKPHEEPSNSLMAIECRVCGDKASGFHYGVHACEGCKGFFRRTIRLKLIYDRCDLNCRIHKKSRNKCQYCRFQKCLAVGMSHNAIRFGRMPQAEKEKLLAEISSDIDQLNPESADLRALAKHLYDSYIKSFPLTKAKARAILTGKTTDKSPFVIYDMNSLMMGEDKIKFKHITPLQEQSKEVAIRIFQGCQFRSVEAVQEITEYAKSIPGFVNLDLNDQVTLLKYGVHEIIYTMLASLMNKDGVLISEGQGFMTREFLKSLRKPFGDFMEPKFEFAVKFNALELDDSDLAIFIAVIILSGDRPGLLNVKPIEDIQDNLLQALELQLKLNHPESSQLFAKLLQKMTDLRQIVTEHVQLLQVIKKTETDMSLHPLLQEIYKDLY
Procedure: (§1) Target Selectivity Assays
(§2) To determine species selectivity, a Mouse PPARα Reporter Assay System was used (Indigo Biosciences, Cat. #M00111). Activity of test compounds to antagonize or agonize other isoforms of human PPAR, for example β/δ and γ, were assessed using the corresponding kits from Indigo Biosciences (Cat. #IB00121 and #IB00101, respectively). In addition to PPAR activity, compounds were also screened for activity against other nuclear hormone receptors including Estrogen Receptor β, Glucocorticoid Receptor and Thyroid Receptor β using commercially available kits (Indigo Biosciences, Cat. #IB00411, IB00201 and IB01101, respectively). Each assay system from Indigo Biosciences uses technology analogous to the human PPARα kit, with the variance being that the cells used for each assay were engineered to over-express the receptor of interest. In addition, the appropriate receptor agonist (included with each kit) was used at ˜EC80 for assays in which antagonist potency was being assessed.

Thyroid Receptor β = target: T2, Thyroid Receptor β (Homo sapiens, UniProt P10828); assay: Target selectivity counterscreen, Thyroid Receptor β reporter assay; type: cell-based; details: receptor agonist at ~EC80
T2 construct: host or cells: engineered reporter cells of the kit
T2 sequence (P10828 1-461): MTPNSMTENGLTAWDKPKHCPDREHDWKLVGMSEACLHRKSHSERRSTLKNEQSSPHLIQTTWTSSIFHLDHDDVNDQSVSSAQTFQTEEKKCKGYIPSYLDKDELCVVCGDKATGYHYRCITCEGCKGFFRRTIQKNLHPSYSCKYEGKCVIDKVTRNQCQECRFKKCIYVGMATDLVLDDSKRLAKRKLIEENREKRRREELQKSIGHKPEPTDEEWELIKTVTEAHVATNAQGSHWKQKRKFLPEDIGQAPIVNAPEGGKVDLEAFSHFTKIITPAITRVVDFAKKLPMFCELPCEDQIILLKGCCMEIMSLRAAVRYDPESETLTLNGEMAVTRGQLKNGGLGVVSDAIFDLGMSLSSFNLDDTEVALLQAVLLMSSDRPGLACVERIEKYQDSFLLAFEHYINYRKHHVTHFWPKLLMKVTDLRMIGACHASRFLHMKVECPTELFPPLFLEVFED
Procedure: as §1, §2

CCn1c(CCCc2ccc(-c3ccc(NS(=O)(=O)c4ccccc4)cn3)cc2)nn(Cc2ccc(C(C)(C)C)cc2)c1=O [Example 10, N-(6-(4-(3-(1-(4-(tert-Butyl)benzyl)-4-ethyl-5-oxo-4,5-dihydro-1H-1,2,4-triazol-3-yl)propyl)phenyl)pyridin-3-yl)benzenesulfonamide]
pIC50 (PPAR gamma): 5.54 | pIC50 (Thyroid Receptor β): < 5.00
